Here are results for 19 compounds from patent publication US9340549B2, “Oxazolidinone compounds and derivatives thereof” (priority 2012, dated 2016).

Each structure is given as a SMILES string. Read-outs that look alike come from different tables or passages of the source.

The subject of assay [1] is 8×TCF promoter-driven Firefly luciferase (Wnt reporter) in HEK-293 cells. Description: 2H9-STF assay, Wnt ligand activated HEK-293 assay in WT APC cellular context. It is filed as cell-based. The following applies: Homo sapiens, HEK293; HEK-293 reporter cells, 200 ng/mL mouse Wnt3a, 18 to 24 hours; read-out: 2H9-Wnt3a-STF-FF/RL * 100 IC50. The method, then:
HEK-293 cells engineered with an 8×TCF promoter-driven Firefly (FF) luciferase gene (Wnt reporter) along with an SV40 promoter-driven Renilla (RN) luciferase gene (control reporter) were used to measure the potency of tankyrase compounds in the context of Wnt ligand activation in a wild-type (non-APC mutated) cellular background. The engineered HEK-293 cells were plated (25 μL) at a density of 40,000 cells/well in black, clear-bottom, 96-well View plates (PerkinElmer) in normal growth medium (DMEM with 10% FBS with no antibiotics). Tankyrase inhibitors (5 μL) were transferred to cells from a three-fold serially diluted compound plate. A 10-point dilution series was tested starting at a concentration (10 μM final concentration in assay). Column 6 contained only DMSO and served as the “HI” control. Cells and compounds were incubated together for 1 hour at 37° C. after which the Wnt3a ligand (pathway inducer) was added to all wells except column 12 which served as the “LO” control. Twenty microliters of diluted recombinant mouse Wnt3a (R & D Systems) was added to the cells for a final concentration of 200 ng/mL (5 nM which is the Wnt3a˜EC80) and the plates were incubated at 37° C. for 18 to 24 hours. The Dual-Glo Reagents (Promega) were added as directed by manufacturer to assay the FF and RN luciferase activity. Luciferase activity was measures using the EnVision multilabel plate reader (PerkinElmer).

Assay [2] relates to total β-catenin in SW480 colorectal cells. Description: cells. The format is cell-based. To be noted: Homo sapiens. An outline of the steps:
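SW480 cells in growth medium (MEM alpha, 10% heat-inactivated FBS, 10 mM HEPES) treated with a 10-point, 3-fold dilution series of TNKS inhibitor for 40–48 h at 37 °C. Lysates run on an MSD sandwich immunoassay for total β-catenin, read by electrochemiluminescence.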

The test system of the next assay is Axin2 in SW480 cells. Nature of the assay: cells. The format is cell-based. To be noted: Homo sapiens, SW480 cells, 24 hours, read-out: Axin2 384 IF EC50 IP. The essentials: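 SW480 cells treated 24 h at 37° C (0.5% DMSO final), fixed/permeabilized, immunostained for Axin2. ArrayScan imaging quantified ring-spot intensity; Axin2 accumulation expressed as percent of control, EC50 from concentration-response.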

In assay [3] the target is 6×HIS-tankyrase 1 (1091-1325) (Homo sapiens (Human), UniProt O95271). Nature of the assay: biochemical. It is filed as biochemical. The following applies: 400 nM NAD, 60 minutes at room temperature, read-out: TNKS1 IP IC50.
Sequence of 6×HIS-tankyrase 1 (1091-1325) (O95271 1091-1325): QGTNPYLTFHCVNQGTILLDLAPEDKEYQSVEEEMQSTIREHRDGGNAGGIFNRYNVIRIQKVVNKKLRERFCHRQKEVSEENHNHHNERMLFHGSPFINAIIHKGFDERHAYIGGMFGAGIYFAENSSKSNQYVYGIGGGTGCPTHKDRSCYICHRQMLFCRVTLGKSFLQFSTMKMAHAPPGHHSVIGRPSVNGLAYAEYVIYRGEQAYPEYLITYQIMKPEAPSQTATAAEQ
[4] abbreviates: SW480 cells, 40 to 48 hours, top concentration 10 μM, read-out: SW480-Total β-Catenin IC50 IP.

`CC1(C)OC(=O)N([C@H]2CC[C@H](NC(=O)c3cccc4cccnc34)CC2)[C@@H]1c1ccccc1` (single isomer, unassigned) [Example 28]: the IC50 in assay [1] amounted to 113 nM.

What is called EC50 is the midpoint of the concentration-response curve. On to `CC1(C)OC(=O)N([C@H]2CC[C@H](n3c(=O)[nH]c4cccnc43)CC2)[C@H]1c1ccccc1` [Example 37, (S)-5,5-dimethyl-3-((1r,4S)-4-(2-oxo-1H-imidazo[4,5-b]pyridin-3(2H)-yl)cyclohexyl)-4-phenyloxazolidin-2-one], for which the IC50 in assay [2] (setting [4]) amounted to 517 nM; in assay [1], 183 nM. Moreover, the EC50 with Axin2 in SW480 cells (SW480, 24 h) was found to be 3580 nM.

Consider `CC1(C)OC(=O)N([C@H]2CC[C@H](n3c(=O)[nH]c4ccccc43)CC2)C1c1ccccc1` (stereo partly drawn) [Example 35, (R+S) 5,5-dimethyl-3-((1r,4r)-4-(2-oxo-2,3-dihydro-1H-benzo[d]imidazol-1-yl)cyclohexyl)-4-phenyloxazolidin-2-one], for which the IC50 in assay [2] (setting [4]) worked out at 1330 nM; in assay [1], 543 nM; in assay [3] ([…] enzyme), 11.8 nM. Also, the EC50 in the assay with Axin2 in SW480 cells (SW480, 24 h) was determined as 6690 nM.

Regarding `CC1(C)OC(=O)N([C@H]2CC[C@H](C(=O)Nc3cccc4cccnc34)CC2)[C@H]1c1ccccc1` [Example 32, (1S,4r)-4-((S)-5,5-dimethyl-2-oxo-4-phenyloxazolidin-3-yl)-N-(quinolin-8-yl)cyclohexanecarboxamide], the IC50 in assay [1] was 92.8 nM.

In the case of `CC1(C)OC(=O)N([C@H]2CC[C@H](c3cnc4[nH]c(=O)n(-c5ncccn5)c4c3)CC2)[C@H]1c1ccccc1` [Example 98, (S)-5,5-dimethyl-3-((1r,4S)-4-(2-oxo-1-(pyrimidin-2-yl)-2,3-dihydro-1H-imidazo[4,5-b]pyridin-6-yl)cyclohexyl)-4-phenyloxazolidin-2-one], the figures for the IC50 in assay [2] (setting [4]) and in assay [3] ([…] enzyme) were 48.2 nM and 0.316 nM, respectively. In addition, in the assay on Axin2 in SW480 cells (SW480, 24 h), the EC50 was determined as 35.7 nM.

In the case of `CC1(C)OC(=O)N(c2ccc3c(c2)CCN(c2cccc4cccnc24)C3=O)[C@H]1c1ccccc1` [Example 63, (S)-5,5-dimethyl-3-(1-oxo-2-(quinolin-8-yl)-1,2,3,4-tetrahydroisoquinolin-6-yl)-4-phenyloxazolidin-2-one], the IC50 in assay [2] (setting [4]) is greater than 10000 nM; in assay [3] ([…] enzyme), 7050 nM. The EC50 in the assay on Axin2 in SW480 cells (SW480, 24 h) is greater than 25000 nM.

Turning to `CC1(C)OC(=O)N(c2ccc(-n3c(=O)[nH]c4ccccc43)nc2)[C@H]1c1ccccc1` [Example 22, (S)-5,5-dimethyl-3-(6-(2-oxo-2,3-dihydro-1H-benzo[d]imidazol-1-yl)pyridin-3-yl)-4-phenyloxazolidin-2-one], the IC50 in assay [2] (setting [4]) is greater than 10000 nM; in assay [3] ([…] enzyme) it was 1430 nM. In addition, the EC50 in the assay on Axin2 in SW480 cells (SW480, 24 h) is greater than 25000 nM.

Turning to `CC1(C)OC(=O)N([C@H]2CC[C@H](n3c(=O)[nH]c4cc(C#N)ccc43)CC2)[C@H]1c1ccc(F)cc1` [Example 61, 1-((1S,4r)-4-((S)-4-(4-fluorophenyl)-5,5-dimethyl-2-oxooxazolidin-3-yl)cyclohexyl)-2-oxo-2,3-dihydro-1H-benzo[d]imidazole-5-carbonitrile], the IC50 in assay [2] (setting [4]) was 148 nM; in assay [3] ([…] enzyme) it was 3.42 nM. In addition, in the assay with Axin2 in SW480 cells (SW480, 24 h), the EC50 came out at 238 nM.

In the case of `CC1(C)OC(=O)N(c2ccc(-c3nnc4cc(C#N)ccn34)cc2)[C@H]1c1ccccc1` [Example 67, (S)-3-(4-(5,5-dimethyl-2-oxo-4-phenyloxazolidin-3-yl)phenyl)-[1,2,4]triazolo[4,3-a]pyridine-7-carbonitrile], the IC50 is greater than 10000 nM in assay [2] (setting [4]) and 5230 nM in assay [3] ([…] enzyme). In the assay on Axin2 in SW480 cells (SW480, 24 h), the EC50 was greater than 25000 nM.

Take `CC1(C)OC(=O)N([C@H]2CC[C@H](N3Cc4cc(C#N)ccc4NC3=O)CC2)[C@H]1c1ccccc1` [Example 62, 3-((1S,4r)-4-((S)-5,5-dimethyl-2-oxo-4-phenyloxazolidin-3-yl)cyclohexyl)-2-oxo-1,2,3,4-tetrahydroquinazoline-6-carbonitrile]: the IC50 in assay [2] (setting [4]) was found to be 438 nM; in assay [3] ([…] enzyme), 7.63 nM. For the same compound, in the assay with Axin2 in SW480 cells (SW480, 24 h), the EC50 was found to be 147 nM.

For the compound `CC1(C)OC(=O)N([C@H]2CC[C@H](c3nnc(-c4ccccc4)o3)CC2)[C@@H]1c1ccccc1` [Example 86, (R)-5,5-dimethyl-4-phenyl-3-((1r,4R)-4-(5-phenyl-1,3,4-oxadiazol-2-yl)cyclohexyl)oxazolidin-2-one], the IC50 in assay [2] (setting [4]) was greater than 10000 nM; in assay [3] ([…] enzyme) it was 32.2 nM. In addition, in the assay on Axin2 in SW480 cells (SW480, 24 h), the concentration for a half-maximal effect (EC50) worked out at 1660 nM.

With `Cc1ccccc1[C@@H]1N(c2ccc(C(=O)Nc3cccc4cccnc34)cc2)C(=O)OC1(C)C` [Example 41, (S)-4-(5,5-dimethyl-2-oxo-4-(o-tolyl)oxazolidin-3-yl)-N-(quinolin-8-yl)benzamide], the IC50 in assay [2] (setting [4]) is 1980 nM; in assay [3] ([…] enzyme) it was 116 nM. For the same compound, the EC50 in the assay on Axin2 in SW480 cells (SW480, 24 h) is 4370 nM.

`CC1(C)OC(=O)N(c2ccc(C(=O)Nc3cccc4cccnc34)cc2)[C@H]1c1ccncc1` [Example 126, (S)-4-(5,5-dimethyl-2-oxo-4-(pyridin-4-yl)oxazolidin-3-yl)-N-(quinolin-8-yl)benzamide]: the IC50 in assay [2] (SW480, read-out: SW480-Total β-Catenin IC50 IP) turned out to be 761 nM; in assay [3] ([…] enzyme), 272 nM. Moreover, the EC50 with Axin2 in SW480 cells (SW480, 24 h) stood at 4620 nM.

Turning to `CC1(C)OC(=O)N(c2ccc(-c3cc(-c4ncccn4)cnc3F)cc2)[C@H]1c1ccccc1` [Example 3, (S)-3-(4-(2-Fluoro-5-(pyrimidin-2-yl)pyridin-3-yl)phenyl)-5,5-dimethyl-4-phenyloxazolidin-2-one], the IC50 in assay [2] (setting [4]) is 1750 nM; in assay [3] ([…] enzyme), 378 nM. For the same compound, the EC50 in the assay with Axin2 in SW480 cells (SW480, 24 h) was greater than 25000 nM.

Consider `O=C(Nc1cccc2cccnc12)c1ccc(N2C(=O)OC3(CCC3)C2c2ccccc2)cc1` (stereo not drawn) [Example 44, (R+S) 4-(6-oxo-8-phenyl-5-oxa-7-azaspiro[3.4]octan-7-yl)-N-(quinolin-8-yl)benzamide], for which the IC50 in assay [2] (setting [4]) came out at 8800 nM; in assay [3] ([…] enzyme), 822 nM. Also, the EC50 in the assay on Axin2 in SW480 cells is greater than 25000 nM.

Turning to `CC1(C)OC(=O)N(c2ccc(-c3cc(-c4nccc(C#N)n4)c[nH]c3=O)cc2)[C@H]1c1ccccc1` [Example 120, (S)-2-(5-(4-(5,5-dimethyl-2-oxo-4-phenyloxazolidin-3-yl)phenyl)-6-oxo-1,6-dihydropyridin-3-yl)pyrimidine-4-carbonitrile], the IC50 in assay [2] (setting [4]) was 2360 nM; in assay [3] ([…] enzyme), 75.8 nM. Also, the EC50 in the assay with Axin2 in SW480 cells (SW480, 24 h) turned out to be 825 nM.

Consider `COc1cccc(C2N(c3ccc(C(=O)Nc4cccc5cccnc45)cc3)C(=O)OC2(C)C)c1` (racemic) [Example 105, (+/−)-(R/S)-4-(4-(3-methoxyphenyl)-5,5-dimethyl-2-oxooxazolidin-3-yl)-N-(quinolin-8-yl)benzamide], for which the IC50 in assay [2] (setting [4]) turned out to be 3250 nM; in assay [3] (0.25 nM enzyme), 152 nM. Besides, in the assay with Axin2 in SW480 cells (SW480, 24 h), the EC50 worked out at 8930 nM.

In the case of `CC1(C)OC(=O)N(c2ccc(-c3cc(-c4ncccn4)ncc3F)cc2)[C@H]1c1ccccc1` [Example 129, (S)-3-(4-(5-fluoro-2-(pyrimidin-2-yl)pyridin-4-yl)phenyl)-5,5-dimethyl-4-phenyloxazolidin-2-one], the IC50 is greater than 10000 nM in assay [2] (setting [4]) and 1830 nM in assay [3] ([…] enzyme). In the assay on Axin2 in SW480 cells (SW480, 24 h), the EC50 was greater than 25000 nM.

Regarding `CC1(C)OC(=O)N([C@H]2CC[C@H](c3cnc(N)c(C4=NCCCN4)c3)CC2)[C@H]1c1ccccc1` [Example 77, (S)-3-((1r,4S)-4-(6-amino-5-(1,4,5,6-tetrahydropyrimidin-2-yl)pyridin-3-yl)cyclohexyl)-5,5-dimethyl-4-phenyloxazolidin-2-one], the IC50 in assay [2] (setting [4]) is greater than 10000 nM; in assay [3] ([…] enzyme), 1650 nM. In addition, the EC50 in the assay with Axin2 in SW480 cells (SW480, 24 h) is greater than 25000 nM.
